Results on six compounds are retold here after PubChem BioAssay AID1963833 (Molecular Pharmacology Branch, DTP, NCI, 2024).

Each structure is given as a SMILES string. Several values for one entry are separate records, joined by “and”; a condition that tells them apart may be missing. Equal entries are not always repeated. A value given as a limit tells only on which side of the number the result lay.

In this assay the test system is 883617-216-R-J1-PDC complex spheroid viability. Kind of assay: Anticancer human tumor 883617-216-R-J1-PDC patient-derived bladder carcinoma cell line growth inhibition [POLQ]. The following applies: for viability, T/C: stronger effect = lower value. As to the method: Multicellular complex tumor spheroid response to Polymerase (POL) inhibitors (novobiocin, ART-558, RP6685) in combination with a variety of drugs and investigational agents in selected tumor cell lines
The POL inhibitors (novobiocin, ART-558, and RP6685) were evaluated both individually and in combination with standard of care and investigational anticancer small molecules within a complex spheroid model of solid tumors. . Complex spheroids include a stromal component modeled by human endothelial cells (HUVEC) and fibroblasts modeled by human mesenchymal stem cells (MSCs). The concentration ranges selected for each drug and investigational agent were based upon clinically achievable concentrations if the clinical Cmax of the agent was known.
Compounds. The drugs and investigational agents: novobiocin (NSC847541), ART-558 (NSC835418), RP-6685 (NSC848927), peposertib (NSC802822), ceralasertib (NSC780249), elimusertib (NSC800525), camonsertib (NSC841442), AZD-1390 (NSC803789), olaparib (NSC753686), talazoparib (NSC767125), rucaparib (NSC756644), sotorasib (NSC818433), MRTX-1133 (NSC836407), SN-38 (NSC673596), topotecan (NSC609699), epotoside (NSC141540), doxorubicin (NSC123127), gemcitabine (NSC613327), 5-fluorouracil (NSC19893), paclitaxel (NSC125973), vemurafenib (NSC761431), MSA-2 (NSC828583), SN-011 (NSC837082), adavosertib (NSC754352), prexasertib (NSC758257), carboplatin (NSC241240) and oxaliplatin (NSC266046), were obtained from the National Cancer Institute (NCI) Developmental Therapeutics Program Chemical Repository (21). The FDA-approved anticancer drug set is available from the Developmental Therapeutics Program at https://dtp.cancer.gov/organization/dscb/obtaining/. […] The stock solutions were prepared in dimethyl sulfoxide (DMSO, Sigma-Aldrich, St. Louis, MO, cat. D2650), except for the platinum compounds which were prepared in saline (Quality Biological, Gaithersburg, MD, cat. 114-055-101), at 800-fold the tested concentration and stored at -70 degrees C prior to their use. All drugs and investigational agents were tested over a range starting from a high concentration at or near the clinical Cmax and decreasing in half-log increments. If the clinical Cmax for an agent had not been determined, the highest concentration tested was 10 microM, except for SN-38, which was tested at a high concentration of 1 microM.
Cell Culture. All cells were maintained in an incubator at 37 degrees C and 5% CO2 with 95% humidity. The PDC lines were cultured according to standard operating procedures established by the NCI PDMR (https://pdmr.cancer.gov). Table 3 of the manuscript, lists the cell lines along with the number of the three cell types plated to form the mct-spheroids and media for tumor cell growth. After thawing, all PDC lines, except 997537-175-T-J1-PDC and 415267-285-R-J2-PDC, were cultured in Matrigel-coated flasks prepared with a working solution of 1X Ham's F-12 nutrient mix, without supplementation (Thermo Fisher Scientific, cat. 11765054), 100 U/mL penicillin-streptomycin (Thermo Fisher Scientific, cat. 15140122), and 2.5% Matrigel (Corning Inc., Corning, NY, cat. 354248) for the first three passages. The two PDC lines 997537-175-T-J1-PDC and 415267-285-R-J2-PDC were cultured on uncoated flasks. The 857933-349-R-J2-PDC line was cultured in 6C/Colon 1B media containing advanced DMEM/F-12 (Thermo Fisher Scientific, cat. 12634028), 10 mM HEPES (Thermo Fisher Scientific, cat. 15630080), 1X GlutaMAX supplement (Thermo Fisher Scientific, cat. 35050061), 0.1 mg/mL primocin (InvivoGen, San Diego, CA, cat. ant-pm-2), 10% defined fetal bovine serum, heat inactivated (HyClone Laboratories Inc., Logan, UT, cat. SH30070.03HI), 50% L-WRN conditioned media (ATCC, cat. CRL-3276), 1.25 mM N-Acetyl-L-cysteine (Sigma-Aldrich, cat. A9165), 10 mM nicotinamide (Sigma-Aldrich, cat. N0636), 1X B-27 supplement (Thermo Fisher Scientific, cat. 17504044), 1X N-2 supplement (Thermo Fisher Scientific, cat. […]

Setting [1] is: curve of first compound, second compound 0.0316 µM.
Where [2] appears, read: curve of first compound, second compound 0.1 µM.
[3] abbreviates: curve of first compound, second compound 0.316 µM.
The mark [4] stands for this setting: curve of first compound, second compound 1 µM.
Setting [5] is: curve of first compound, second compound 3.16 µM.
The mark [6] stands for this setting: curve of first compound, second compound 10 µM.
The mark [7] stands for this setting: second compound 0.0316 µM, first compound 0.0316 µM.
The mark [8] stands for this setting: second compound 0.0316 µM, first compound 0.1 µM.
Where [9] appears, read: second compound 0.0316 µM, first compound 0.316 µM.
Setting [10] is: second compound 0.0316 µM, first compound 1 µM.
Where [11] appears, read: second compound 0.1 µM, first compound 0.0316 µM.
[12] abbreviates: second compound 0.1 µM, first compound 0.1 µM.
[13] abbreviates: second compound 0.1 µM, first compound 0.316 µM.
Where [14] appears, read: second compound 0.1 µM, first compound 1 µM.
[15] abbreviates: second compound 0.316 µM, first compound 0.0316 µM.
[16] abbreviates: second compound 0.316 µM, first compound 0.1 µM.
Where [17] appears, read: second compound 0.316 µM, first compound 0.316 µM.
Setting [18] is: second compound 0.316 µM, first compound 1 µM.
[19] abbreviates: second compound 1 µM, first compound 0.0316 µM.
The mark [20] stands for this setting: second compound 1 µM, first compound 0.1 µM.
[21] abbreviates: second compound 1 µM, first compound 0.316 µM.
Setting [22] is: second compound 1 µM, first compound 1 µM.
The mark [23] stands for this setting: second compound 3.16 µM, first compound 0.0316 µM.
The mark [24] stands for this setting: second compound 3.16 µM, first compound 0.1 µM.
The mark [25] stands for this setting: second compound 3.16 µM, first compound 0.316 µM.
Setting [26] is: second compound 3.16 µM, first compound 1 µM.
Setting [27] is: second compound 10 µM, first compound 0.0316 µM.
The mark [28] stands for this setting: second compound 10 µM, first compound 0.1 µM.
Where [29] appears, read: second compound 10 µM, first compound 0.316 µM.
[30] abbreviates: second compound 10 µM, first compound 1 µM.
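Note: spheroids exposed to compounds for seven days before readout.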

Take `C=CCn1c(=O)c2cnc(Nc3ccc(N4CCN(C)CC4)cc3)nc2n1-c1cccc(C(C)(C)O)n1` + COC1C(OC(N)=O)C(O)C(Oc2ccc3c(O)c(NC(=O)c4ccc(O)c(CC=C(C)C)c4)c(=O)oc3c2C)OC1(C)C: the IC50 reads like this: under setting [1], 916 nM; under setting [2], 811 nM; under setting [3], 945 nM; under setting [4], 889 nM; under setting [5], 883 nM; under setting [6], 820 nM. For the same compound, the viability, T/C by setting is: (second compound 0.0316 µM, first compound 0.00316 µM) 113%; (second compound 0.0316 µM, first compound 0.01 µM) 97.9%; under setting [7], 112%; under setting [8], 94.7%; under setting [9], 84.6%; under setting [10], 47%. For the same compound, the viability, T/C runs as follows: (second compound 0.1 µM, first compound 0.00316 µM) 101%; (second compound 0.1 µM, first compound 0.01 µM) 91.9%; under setting [11], 98.9%; under setting [12], 120%; under setting [13], 85.9%; under setting [14], 42%. Also, the viability, T/C by setting is: (second compound 0.316 µM, first compound 0.00316 µM) 121%; (second compound 0.316 µM, first compound 0.01 µM) 99.8%; under setting [15], 104%; under setting [16], 107%; under setting [17], 77.8%; under setting [18], 48.6%. Also, the viability, T/C was 103% (second compound 1 µM, first compound 0.00316 µM); 95.2% (second compound 1 µM, first compound 0.01 µM); 105% under setting [19]; 112% under setting [20]; 92.2% under setting [21]; 45.2% under setting [22]. The viability, T/C is 106% (second compound 3.16 µM, first compound 0.00316 µM); 101% (second compound 3.16 µM, first compound 0.01 µM); 98.6% under setting [23]; 104% under setting [24]; 90% under setting [25]; 44.8% under setting [26]. Also, the viability, T/C by setting is: (second compound 10 µM, first compound 0.00316 µM) 104%; (second compound 10 µM, first compound 0.01 µM) 87.1%; under setting [27], 105%; under setting [28], 91.6%; under setting [29], 84%; under setting [30], 42.8%.

In the case of `C#Cc1c(F)ccc2cc(O)cc(-c3ncc4c(N5CC6CCC(C5)N6)nc(OCC56CCCN5CC(F)C6)nc4c3F)c12` (configuration not stated), the viability, T/C is, setting by setting: (compound 0.0316 µM) 98% and 83% and 93.6%; (compound 0.1 µM) 95% and 94% and 84.2%; (compound 0.316 µM) 101% and 82% and 104%; (compound 1 µM) 95.3% and 81.1% and 88.5%; (compound 3.16 µM) 94.2% and 83% and 85.1%; (compound 10 µM) 72.5% and 74.3% and 83.1%. For the same compound, the IC50 (curve of compound) is greater than 10000 nM.

For `CC1COCCN1c1cc(-c2ccnn2C)c2ccnc(-c3ccn[nH]3)c2n1` (configuration not stated), the viability, T/C is 83.5% and 90% and 77.5% (compound 0.0316 µM); 51.3% and 58.9% and 59.6% (compound 0.1 µM); 43.9% and 45.8% and 56.5% (compound 0.316 µM); 36.8% and 37.4% and 36.7% (compound 1 µM); 32.3% and 29.7% and 40.9% (compound 3.16 µM); 27.4% and 31.1% and 28.9% (compound 10 µM). For the same compound, for the setting “curve of compound”, the IC50 was 151 nM and 210 nM and 393 nM.

Regarding `CCc1cc2c(N3CCc4c(cc(Cn5ccnc5)cc4-c4cn(C)nc4C(F)(F)F)C3=O)cc(C)nc2c(OC)n1` + Nc1ccc(C#CCN(C(=O)Cc2ncc(C(F)(F)F)cc2C(F)(F)F)c2ccc(F)cc2)nn1, the IC50 runs as follows: under setting [1], greater than 10000 nM; under setting [2], greater than 10000 nM; under setting [3], greater than 10000 nM; under setting [4], greater than 10000 nM; under setting [5], greater than 10000 nM; under setting [6], 9750 nM. Moreover, the viability, T/C is, setting by setting: under setting [7], 89.2%; under setting [8], 92.2%; under setting [9], 92.8%; under setting [10], 90.4%; (second compound 0.0316 µM, first compound 3.16 µM) 76%; (second compound 0.0316 µM, first compound 10 µM) 52.3%. The viability, T/C runs as follows: under setting [11], 85.5%; under setting [12], 96.9%; under setting [13], 95.5%; under setting [14], 90.6%; (second compound 0.1 µM, first compound 3.16 µM) 79.5%; (second compound 0.1 µM, first compound 10 µM) 64.5%. In addition, the viability, T/C by setting is: under setting [15], 105%; under setting [16], 93.1%; under setting [17], 98%; under setting [18], 88.4%; (second compound 0.316 µM, first compound 3.16 µM) 73.9%; (second compound 0.316 µM, first compound 10 µM) 57.4%. The viability, T/C is 91.5% under setting [19]; 93.3% under setting [20]; 94% under setting [21]; 88.9% under setting [22]; 71.6% (second compound 1 µM, first compound 3.16 µM); 61.8% (second compound 1 µM, first compound 10 µM). Also, the viability, T/C is, setting by setting: under setting [23], 106%; under setting [24], 92.4%; under setting [25], 96.4%; under setting [26], 97.5%; (second compound 3.16 µM, first compound 3.16 µM) 78.6%; (second compound 3.16 µM, first compound 10 µM) 67.8%. Further, the viability, T/C under setting [27] was 106%; the viability, T/C under setting [28] is 118%; the viability, T/C under setting [29] is 115%; the viability, T/C under setting [30] is 101%; the viability, T/C (second compound 10 µM, first compound 3.16 µM) was 90.5%; the viability, T/C (second compound 10 µM, first compound 10 µM) is 48.8%.

On to `COc1cc(C2c3cc4c(cc3C(OC3OC5COC(C)OC5C(O)C3O)C3COC(=O)C23)OCO4)cc(OC)c1O` (configuration not stated), for which the viability, T/C (compound 0.0316 µM) was 99.9% and 95.2% and 109%; the viability, T/C (compound 0.1 µM) was 86.2% and 78.2% and 89.1%; the viability, T/C (compound 0.316 µM) is 85.3% and 96.4% and 83.7%; the viability, T/C (compound 1 µM) was 63.6% and 76.7% and 66.2%; the viability, T/C (compound 3.16 µM) is 61.5% and 67.9% and 60%; the viability, T/C (compound 10 µM) is 47.5% and 57.3% and 49.9%. Moreover, under “curve of compound”, the 50% inhibitory concentration (IC50) was 8180 nM and > 10000 nM.

With `Nc1ccn(C2OC(CO)C(O)C2(F)F)c(=O)n1` (configuration not stated), the viability, T/C (compound 0.0316 µM) is 32.7% and 33% and 32.6%; the viability, T/C (compound 0.1 µM) was 30.6% and 36.1% and 29.3%; the viability, T/C (compound 0.316 µM) was 32.9% and 36.7% and 46.2%; the viability, T/C (compound 1 µM) is 39.7% and 42.4% and 33.9%; the viability, T/C (compound 3.16 µM) is 36.2% and 41.4% and 31.7%; the viability, T/C (compound 10 µM) was 26.8% and 42.1% and 30.9%. In addition, under “curve of compound”, the IC50 is less than 31.6 nM.

What is called IC50 is the midpoint of a concentration-inhibition curve. In general, viability, T/C refers to the result in the treated group divided by that in the control group, in per cent.
